Source: article PMC12715762, “Discovery of VU6052254: A Novel, Potent M1 Positive Allosteric Modulator” (ACS Chemical Neuroscience, 2025)
Numbering of substitutions follows the chain as printed. In brackets after ≈: the same amount, converted by molar mass. Like-named read-outs stand apart in the source and are kept apart here.

Tests used:
[1] = kinetic / aqueous solubility; type: physicochemical; conditions: for solubility kinetic: aqueous medium, kinetic from dmso stock
[2] = target: T1, human M1 (Homo sapiens, UniProt P11229); assay: M1 agonist calcium mobilization assay (human); type: cell-based; conditions: for hM1 Agonist AChmax (%): human M1, % ACh max, n = 9
T1 sequence (P11229 1-460): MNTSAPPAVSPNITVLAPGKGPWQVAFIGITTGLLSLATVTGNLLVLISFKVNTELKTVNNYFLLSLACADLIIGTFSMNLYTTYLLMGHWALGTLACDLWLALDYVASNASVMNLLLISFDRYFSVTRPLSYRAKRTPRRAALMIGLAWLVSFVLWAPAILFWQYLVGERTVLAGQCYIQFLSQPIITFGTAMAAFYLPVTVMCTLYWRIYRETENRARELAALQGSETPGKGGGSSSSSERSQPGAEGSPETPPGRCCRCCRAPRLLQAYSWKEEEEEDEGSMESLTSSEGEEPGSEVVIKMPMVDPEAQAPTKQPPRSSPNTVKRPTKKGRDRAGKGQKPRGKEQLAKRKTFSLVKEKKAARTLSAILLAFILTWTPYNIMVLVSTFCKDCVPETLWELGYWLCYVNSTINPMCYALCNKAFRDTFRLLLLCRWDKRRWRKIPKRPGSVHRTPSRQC
Experimental: Procedures for Biological Experiments
Calcium mobilization assays:
All functional cell-based assays were performed in stable Chinese Hamster Ovary (CHO) cell lines constitutively expressing human M5 or human M1 receptors. For full muscarinic selectivity, CHO cells expressing human M3, human M2 plus Gqi5 or human M4 plus Gqi5 were used. Cells were plated at 15,000 cells per 20 µL per well in black 384-well, TC-treated, clear-bottomed plates (Greiner) in Ham’s F12 medium supplemented with 10% FBS and 20 mM HEPES. Cells were incubated overnight at 37 °C under 5% CO2. The following day, the medium was removed and replaced with 1.2 µM Fluo-4 AM (Invitrogen) in assay buffer (Hank’s Balanced Salt Solution supplemented with 20 mM HEPES and 2.5 mM Probenecid, pH 7.4) and the cells were incubated for 50 minutes at 37 °C under 5% CO2. Dye was then removed and replaced with 20 µL of fresh assay buffer. Test compounds at a 10 mM concentration in DMSO were serially diluted in DMSO (either 1:3 or 1:5 dilution) to create a 10-point concentration series. The DMSO solutions were then diluted in assay buffer resulting in compound solutions at 2-times the final assay concentration with the highest assay concentration of 30 µM. The compound plate, cell plate, and plates containing EC20 and EC80 acetylcholine concentrations were placed in a Hamamatsu FDSS 6000 or 7000 kinetic imaging plate reader equipped to measure Ex480/Em540 fluorescence. Data were collected at 1 frame per second. After 2 seconds of collecting baseline fluorescence, 20 µL of the compound solutions were added to the cell plate. This was followed by the addition of an EC20 concentration of acetylcholine at 142 seconds. […] The fluorescence signal was collected for a total of 300 seconds. […] Data were imported and analyzed in Dotmatics Informatics software. by normalizing all data in the individual kinetic traces to the initial fluorescence read. The magnitude of each agonist addition was then determined and normalized to the average maximum response. […] The IC50 determined using the EC80 of acetylcholine is the value reported. […]

[3] = target: T2, rat M1 (Rattus norvegicus, UniProt P08482); assay: M1 PAM calcium mobilization assay (rat); type: cell-based; conditions: for rM1 PAM AChmax (%): rat M1, % ACh max, n = 5; for EC50: rat M1, n = 5, read-out: rM1 PAM EC50
T2 construct: expressed in transfected cells
T2 sequence (P08482 1-460): T1 sequence (P11229 1-460) with A5V, T254S, P309S, R320K, A337G, I413V

[4] = tested on: rM2-5; assay: muscarinic selectivity calcium mobilization (rat M2-5); type: cell-based
[5] = target: CYP 1A2 (Homo sapiens, UniProt P05177); assay: CYP450 inhibition; type: in vitro ADME
[6] = pH 2.2, pH 2.2, aqueous buffer, read-out: Kinetic solubility (pH = 2.2)
[7] = pH 6.8, pH 6.8, aqueous buffer, read-out: Kinetic solubility (pH = 6.8)

CYP 1A2, sequence (P05177 whole entry): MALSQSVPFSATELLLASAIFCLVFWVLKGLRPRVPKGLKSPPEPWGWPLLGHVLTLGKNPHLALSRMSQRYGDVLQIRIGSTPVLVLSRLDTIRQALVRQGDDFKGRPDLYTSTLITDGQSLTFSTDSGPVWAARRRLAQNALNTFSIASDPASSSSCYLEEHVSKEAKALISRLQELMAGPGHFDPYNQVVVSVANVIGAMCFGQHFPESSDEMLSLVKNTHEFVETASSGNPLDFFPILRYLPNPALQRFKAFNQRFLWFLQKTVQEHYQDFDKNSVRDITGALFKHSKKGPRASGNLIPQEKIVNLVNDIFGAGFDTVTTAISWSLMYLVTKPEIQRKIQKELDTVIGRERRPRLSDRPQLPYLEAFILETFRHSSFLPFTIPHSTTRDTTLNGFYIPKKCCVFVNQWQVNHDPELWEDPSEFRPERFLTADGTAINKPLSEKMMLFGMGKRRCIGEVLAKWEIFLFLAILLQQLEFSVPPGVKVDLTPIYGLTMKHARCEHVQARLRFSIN

Compound	solubility kinetic [1, 6] [µM]	solubility kinetic [1, 7] [µM]	aqueous solubility ([1]; result in words)	hM1 Agonist AChmax (%) [2] [%]	rM1 PAM AChmax (%) [3] [%]	EC50 [3] [µM]	EC50 [4] [µM]	IC50 [5] [µM]	EC50 ([2]; human M1, n = 9, read-out: hM1 Agonist EC50) [µM]
Cn1cc2c(-c3cc(F)c(CN4Cc5ncccc5C4=O)c(F)c3)cccc2n1 [compound 1, reference compound]	80.1 (≈ 31.3 µg/mL)	9.75 (≈ 3.81 µg/mL)	low aqueous solubility	20	81	0.398	> 30	14	–
Cn1cc2c(-c3cc(F)c(CN4Cc5ncccc5C4=O)c(F)c3)ccc(C(C)(C)O)c2n1 [compound 7]	81.5 (≈ 36.6 µg/mL)	67.8 (≈ 30.4 µg/mL)	–	22	94	0.078	> 30	> 30	3.64
